The record followed here is a melting point compilation (Tetko et al.; mined from patent text by program, amines drawn as free bases though some values may be those of a salt).

For orientation: melting point means the temperature of the solid-liquid transition. `CN1CCC(c2c(O)cc(O)c3c(=O)cc(-c4ccccc4Cl)oc23)C1Cn1ccnc1` (centres undefined) had a melting point of 249 to 250 °C.

In turn, `COC(=O)C(Cc1ccc(OCc2ccccc2)cc1)NC(=O)c1cc2ccc(-c3ccc(Cl)cc3)cc2[nH]1` (centres undefined) returned a melting point of 196 to 198 °C.

With `CCC(CC)(NC(C)=O)c1ccc(CN2CCN(c3ccccc3)CC2)cc1`, the melting point fell in the range of 139 to 140 °C.

For the molecule `c1ccc2nc3c(nc2c1)OCC1CCCCN31` (centres undefined), the melting point fell in the range of 141 to 143 °C.

Molecule `CCc1cccc(NC(=O)c2nnn[nH]2)c1O` had a melting point of 185 to 187 °C.

Molecule `O=c1oc(-c2ccc(OCc3ccc4ccccc4c3)cc2)cc(O)c1SCCc1ccccc1` gave a melting point of 152 to 154 °C.

Take `CS(=O)(=O)c1cnc(-c2nn(Cc3ccccc3F)c3ncccc23)nc1N`: the melting point came out at 272 °C.

Molecule `Cn1nc(-c2ccc(O)cc2)ccc1=O` showed a melting point of 242 to 245 °C.

As to `Cc1noc(-c2cccc(C3=Nc4ccc(-c5ccc(F)cc5)cc4NC(=O)C3)c2)n1`, the melting point was in the range of 266 to 268 °C.

`COc1ccnc(C(C)Sc2nc3cc(OC(F)(F)C(F)Cl)ccc3[nH]2)c1` (centres undefined): the melting point was 120 to 122 °C.

`Cc1cc(C(=O)N2Cc3cccn3Cc3ccccc32)ccc1C1=CCCCC1(C)C` displayed a melting point of 131 °C.

With `C#CC1(O)CCC2C3CCC4=CC(=O)CCC4C3C(C(F)F)CC21C` (centres undefined), the melting point is 185 to 187 °C.

On to `Fc1ccc2c(c1)NCc1ccccc1O2`, for which the melting point was determined as 94 °C.

In turn, `CC1=Nc2ccc(C)cc2C(O)(c2ccccc2)N1N` (centres undefined) had a melting point of 192 to 196 °C.

For `COCCNc1c(N)cc(C(=O)O)cc1S(N)(=O)=O`, the melting point fell in the range of 209 to 211 °C.

`NC(=O)CCC(C(=O)O)N1C(=O)c2cccc(N)c2C1=O` (centres undefined) showed a melting point of 165 to 167 °C.

Molecule `CCOC(=O)N(c1ccc(C#N)cc1)c1c(NC(C)C(C)(C)C)c(=O)c1=O` (centres undefined) had a melting point of 158 to 159 °C.

`Clc1ccc(CNc2nc(-c3cccc(Cl)n3)nc3ccccc23)cc1` returned a melting point of 187 to 190 °C.

The molecule `COCOc1cc(OC)c(OC)cc1C#Cc1ccc(OC)c(OC)c1` came in with a melting point of 84 to 86 °C.

As to `Cc1cc(N2CC=C(C(=O)O)CC2)c2cccc(-c3ccc(Cl)cc3Cl)c2n1`, the melting point lay in the range of 218 to 220 °C.

`COC(=O)C=Cc1cc(O)c(O)c([N+](=O)[O-])c1` came in with a melting point of 186 to 187 °C.

Consider `CNC1=C(C#N)C(c2ccc(Cl)c([N+](=O)[O-])c2)c2ccc3ccccc3c2O1` (centres undefined), for which the melting point fell in the range of 278 to 279 °C.

Regarding `CC(=O)SCC(=O)NC(=O)Cc1ccccc1`, the melting point was in the range of 153 to 155 °C.

Regarding `O=C(Nc1ccc(CN2CCCCC2)cc1)c1cccc(OCc2ccccc2)c1`, the melting point is 137 to 138 °C.

In turn, `CN(C)C(=O)C(C)(C)c1ccccc1` had a melting point of 57 to 59 °C.

`O=c1[nH]c(=O)n(CCCCN2CCC(OC(c3ccccc3)c3ccccc3)CC2)c2ccc(Cl)cc12` showed a melting point of 209 to 210 °C.

Take `CCC(=O)n1c(=O)n(-c2ccc([N+](=O)[O-])cc2)c(=O)n1C(=O)CC`: the melting point lay within 140 to 142 °C.

In turn, `CCOc1nc(=O)n(C(=O)NC(=O)CCl)s1` came in with a melting point of 132 °C.

In the case of `COc1ccc(C(=O)N2c3ccccc3C(N3CCc4ccccc43)CC2C)cc1OC` (centres undefined), the melting point was 147 to 148 °C.

The molecule `OCC=Cc1ccsc1` gave a melting point of 58 to 60 °C.

Turning to `CC(C)(C)OC(=O)Cn1ccc2cc(NC(=O)CC34CC5CC(CC(C5)C3)C4)ccc21`, the melting point is 199 °C.

On to `CC(C)CCn1cn[nH]c1=O`, for which the melting point was 78 to 79 °C.

Take `CC1CCCN(c2cc(F)cc(C(=O)Nc3ccc(OCCN4CCOCC4)c4ccccc34)c2)C1` (centres undefined): the melting point was 145 to 148 °C.

For the molecule `CCON(c1ccc([N+](=O)[O-])cc1Cl)S(=O)(=O)c1ccc(C)cc1`, the melting point lay in the range of 134 to 135 °C.

For the molecule `COC(=O)c1ncc(Cl)nc1NCc1ccc(OC)c(Cl)c1`, the melting point is 149 to 151 °C.

Take `Cn1c(=O)n(C)c2cc3c(N4CCN(C(=O)Nc5ccc(Oc6ccccc6)cc5)CC4)ncnc3cc21`: the melting point is 250 to 255 °C.

As to `CC[C@H](Cc1sccc1Cl)Nc1ncnc2c1ncn2[C@@H]1C[C@H](CF)[C@@H](O)[C@H]1O`, the melting point is 143 °C.

`CC(C)(C)c1ccc(N2CCOCC2)c(N)c1` had a melting point of 165 to 166 °C.

With `Cc1sc(C=O)cc1C(=O)O`, the melting point is 173 °C.

`COc1cc(OC)c2c(=O)cc(-c3n[nH]c4ccccc34)oc2c1` had a melting point of 253 to 255 °C.

Molecule `CCOC(=O)C=CC(=O)N1CC1C#N` (centres undefined) had a melting point of 54 to 56 °C.

For the molecule `CC(C)(OCc1cc2cc(Cl)ccc2n1S(=O)(=O)c1ccc2c(c1)OCCO2)C(=O)O`, the melting point lay within 156 to 158 °C.

In the case of `CCCCCNC(=O)c1cnc2cccc(C)n2c1=O`, the melting point lay in the range of 112 to 116 °C.

Turning to `CC(=O)NC1Cc2ccc(C(=O)CCCCCl)cc2C1` (centres undefined), the melting point was 106 to 108 °C.

The molecule `CC(C)(C)c1cc(-c2nnc(N)s2)cc(C(C)(C)C)c1O` gave a melting point of 261 °C.

Molecule `CC(C)CNC(=O)c1cccc(-c2ccnc3c(C(=O)c4cccs4)cnn23)c1` displayed a melting point of 174 to 177 °C.

`CCC(=O)OCCc1ccc2c(c1)C(=O)c1ccccc1CO2` came in with a melting point of 71.5 to 73.5 °C.

For the molecule `CS(=O)(=O)Nc1ccc2c(c1)CC(=O)N2CCN1CCN(Cc2ccccc2)CC1`, the melting point lay within 196 to 198 °C.

For `C=CCc1cc(Cc2cnc(N)nc2N)c2ccc(C)nc2c1O`, the melting point lay within 236 to 237 °C.

As to `CC(C)(C)OC(=O)NCCNC(=O)c1noc(N)c1-c1ccccc1`, the melting point came to 144 °C.

`Cc1c(C2CCC(c3ccccc3)(N(C)C)CC2)n(CC(O)CN(C)C)c2ccccc12` (centres undefined): the melting point lay within 54 to 57 °C.

`CCOC(=O)NCCCC1OCC(c2cccc3ccccc23)CO1` (centres undefined): the melting point is 93 to 94 °C.

The molecule `O=c1[nH]c2cc(Cl)cc(OCCNCc3ccccc3)c2[nH]1` came in with a melting point of 192 to 193 °C.

Turning to `O=C(O)COCCC1CCCN(c2cnc(-c3ccccc3)c(-c3ccccc3)n2)C1` (centres undefined), the melting point is 139 to 140 °C.

As for `CCOC(=O)c1oc(Oc2ccccc2)nc1C(F)(F)F`, the melting point was 75 to 77 °C.

Turning to `N#Cc1cncc(C2OC(CO)C(O)C2O)c1` (centres undefined), the melting point fell in the range of 169 to 171 °C.

Regarding `Nc1ccc(C(=O)N2CCOCC2)c(N)c1`, the melting point lay within 114 to 115 °C.

In turn, `CCN(CC)Cc1[nH]c(C)c(-c2ccnc(Nc3ccc(F)cc3)n2)c1C` displayed a melting point of 71.9 to 74.2 °C.

As to `CC(C)(C)c1ccc(C#N)cc1NC(=O)Nc1cccnc1`, the melting point lay within 194 to 196 °C.

With `Cc1ccnc(NC(c2ccc(C(F)(F)F)cc2)c2ccc3cccnc3c2O)n1` (centres undefined), the melting point was 144 to 147 °C.

In turn, `COc1cccc2c1c(C)c(CCC(=O)O)n2Cc1ccc(Cl)cc1` had a melting point of 145 °C.

As for `COc1ccc(-c2coc3ccc(-c4nnc(SCc5ccc(OC)c(F)c5)o4)cc23)cc1`, the melting point lay within 162 to 163 °C.

Molecule `CN(C)C(=O)N1CCC(C(=O)N(CCCN2CCC(Cc3ccccc3)CC2)c2ccc(Cl)c(Cl)c2)CC1` yielded a melting point of 109 to 112 °C.

`C[C@H](NC(=O)OCc1ccccc1)C(=O)N1CCC[C@H]1C(=O)Nc1ccccc1`: the melting point fell in the range of 138 to 139 °C.
